Experimental data taken from PMC6116705, “Design, synthesis, in vitro antiproliferative activity and apoptosis-inducing studies of 1-(3′,4′,5′-trimethoxyphenyl)-3-(2′-alkoxycarbonylindolyl)-2-propen-1-one derivatives obtained by a molecular hybridisation approach” (Journal of Enzyme Inhibition and Medicinal Chemistry, 2018).
Like-named read-outs stand apart in the source and are kept apart here.

Key:
[1] = tested on: human cervix carcinoma (HeLa) cells; test: Antiproliferative assay, cell counting (Coulter Counter), HeLa; type: cell-based; conditions: read-out: IC50, inhibition of proliferation
Protocol: (§1) Human cervix carcinoma (HeLa), human colon carcinoma (HT29), human breast carcinoma (MCF-7) and human lymphoma (HL-60) cells (3–5 × 10^4 cells) and a serial (five-fold) dilution of the test compounds were added to a 96-well microtiter plate. The cells were incubated for 72–96 h (depending on the tumor cell line) at 37 °C in a humidified 5% CO2 atmosphere. At the end of the incubation period, the cells were counted in a Coulter Counter (Coulter Electronics Ltd, Harpenden Herts, UK). […] The IC50 values represent the average (±standard deviation) of at least two to four independent experiments.

[2] = tested on: human colon adenocarcinoma (HT29) cells; test: Antiproliferative assay, cell counting (Coulter Counter), HT29; type: cell-based; conditions: read-out: IC50, inhibition of proliferation
Protocol: as §1

[3] = tested on: human breast adenocarcinoma (MCF-7) cells; test: Antiproliferative assay, cell counting (Coulter Counter), MCF-7; type: cell-based; conditions: read-out: IC50, inhibition of proliferation
Protocol: as §1

[4] = tested on: human promyelocytic leukemia (HL-60) cells; test: Antiproliferative assay, cell counting (Coulter Counter), HL-60; type: cell-based; conditions: read-out: IC50, inhibition of proliferation
Protocol: as §1

[5] = tested on: bovine brain tubulin; test: Inhibition of tubulin polymerisation (turbidimetric tubulin assembly); type: biochemical; conditions: tubulin 10 µM, 20 min at 30 °C; read-out: Tubulin assembly IC50±SD
Protocol: (§2) To evaluate the effect of the compounds on tubulin assembly in vitro[40], varying concentrations of compounds were preincubated with 10 μM bovine brain tubulin in 0.8M monosodium glutamate (pH adjusted to 6.6 with HCl in a 2.0M stock solution) at 30 °C and then cooled to 0 °C. After addition of 0.4 mM GTP, the mixtures were transferred to 0 °C cuvettes in a recording spectrophotometer and warmed to 30 °C. Tubulin assembly was followed turbidimetrically at 350 nm. […] The capacity of the test compounds to inhibit colchicine binding to tubulin was measured as described. The reaction mixtures contained 1 μM tubulin, 5 μM [^3H]colchicine and 5 μM test compound.

[6] = tested on: tubulin (colchicine site); test: Inhibition of [3H]colchicine binding to tubulin; set-up: species or system bovine; conditions: tubulin 1 µM, [3H]colchicine 5 µM, compound 5 µM
Protocol: as §2

[7] = tested on: U251 glioblastoma cancer cell line; set-up: method as in PMID 27343855; conditions: read-out: IC50, antiproliferative activity; cited from earlier work
[8] = Homo sapiens, reference compounds in nM
[9] = Homo sapiens, HL-60, reference compounds in nM
[10] = Homo sapiens, HT-29, HT29, 72–96 h
[11] = Homo sapiens, MCF7, MCF-7, 72–96 h

Row | Compound | IC50 ([1]; Homo sapiens, 72–96 h) [nM] | IC50 [2, 10] [nM] | IC50 [3, 11] [nM] | IC50 ([4]; Homo sapiens, HL-60, 72–96 h) [nM] | melting point [°C] | also measured
1 | COc1ccc2c(/C=C/C(=O)c3cc(OC)c(OC)c(OC)c3)c[nH]c2c1 [4a, reference compound] | – | – | – | – | – | IC50 [1, 8]: 81 ± 2 nM; IC50 ([2]; Homo sapiens, HT-29, HT29, reference compounds in nM): 60 ± 3 nM; IC50 ([3]; Homo sapiens, MCF7, MCF-7, reference compounds in nM): 49 ± 4 nM; IC50 [4, 9]: 23 ± 1 nM
2 | COc1ccc(/C=C\c2cc(OC)c(OC)c(OC)c2)cc1O [CA-4, combretastatin A-4, reference compound] | – | – | – | – | – | IC50 [1, 8]: 4 ± 1 nM; IC50 [4, 9]: 1 ± 0.2 nM; IC50 [5]: […]; Colchicine binding % ±SD (inhibition) [6]: 98 ± 0.9%
3 | COC(=O)c1[nH]c2ccccc2c1/C=C/C(=O)c1cc(OC)c(OC)c(OC)c1 [Compound 9a, (E)-Methyl 3-(3-oxo-3-(3,4,5-trimethoxyphenyl)prop-1-en-1-yl)-1H-indole-2-carboxylate] | 2000 ± 1000 | 7300 ± 1200 | 1100 ± 400 | 4400 | – | –
4 | CCOC(=O)c1[nH]c2ccccc2c1/C=C/C(=O)c1cc(OC)c(OC)c(OC)c1 [Compound 9b, (E)-Ethyl 3-(3-oxo-3-(3,4,5-trimethoxyphenyl)prop-1-en-1-yl)-1H-indole-2-carboxylate] | 2100 ± 800 | 440 ± 330 | 1800 ± 1500 | – | – | –
5 | COC(=O)c1[nH]c2ccc(OC)cc2c1/C=C/C(=O)c1cc(OC)c(OC)c(OC)c1 [Compound 9c, (E)-Methyl 5-methoxy-3-(3-oxo-3-(3,4,5-trimethoxyphenyl)prop-1-en-1-yl)-1H-indole-2-carboxylate] | 2400 ± 600 | 1000 ± 700 | 590 | 27000 ± 1000 | – | IC50 [5]: > 20 µM; Colchicine binding % ±SD (inhibition) [6]: 5.3 ± 4%
6 | COC(=O)c1c(/C=C/C(=O)c2cc(OC)c(OC)c(OC)c2)c2ccccc2n1C [Compound 9g, (E)-Methyl 1-methyl-3-(3-oxo-3-(3,4,5-trimethoxyphenyl)prop-1-en-1-yl)-1H-indole-2-carboxylate] | 69000 ± 12000 | 10000 ± 4000 | 6700 ± 3000 | 67000 ± 46000 | 147 to 149 | –
7 | CCOC(=O)c1c(/C=C/C(=O)c2cc(OC)c(OC)c(OC)c2)c2ccccc2n1C [Compound 9h, (E)-Ethyl 1-methyl-3-(3-oxo-3-(3,4,5-trimethoxyphenyl)prop-1-en-1-yl)-1H-indole-2-carboxylate] | 41000 ± 11000 | 5000 ± 1400 | 8300 ± 2300 | 58000 ± 40000 | 138 to 140 | –
8 | COC(=O)c1c(/C=C/C(=O)c2cc(OC)c(OC)c(OC)c2)c2cc(OC)ccc2n1C [Compound 9i, (E)-Methyl 5-methoxy-1-methyl-3-(3-oxo-3-(3,4,5-trimethoxyphenyl)prop-1-en-1-yl)-1H-indole-2-carboxylate] | 25000 ± 3000 | 22000 ± 1000 | 2700 ± 900 | 28000 ± 3000 | 150 to 151 | –
9 | COC(=O)c1c(/C=C/C(=O)c2cc(OC)c(OC)c(OC)c2)c2ccc(OC)cc2n1C [Compound 9j, (E)-Methyl 6-methoxy-1-methyl-3-(3-oxo-3-(3,4,5-trimethoxyphenyl)prop-1-en-1-yl)-1H-indole-2-carboxylate] | ≥ 100000 | 31000 ± 22000 | 11000 ± 4000 | 14000 ± 10000 | 135 to 136 | –
10 | CCn1c(C(=O)OC)c(/C=C/C(=O)c2cc(OC)c(OC)c(OC)c2)c2ccccc21 [Compound 9k, (E)-Methyl 1-ethyl-3-(3-oxo-3-(3,4,5-trimethoxyphenyl)prop-1-en-1-yl)-1H-indole-2-carboxylate] | 9400 ± 3100 | 6700 ± 1200 | 11000 ± 10000 | 37000 ± 1000 | 115 to 117 | –
11 | CCn1c(C(=O)OC)c(/C=C/C(=O)c2cc(OC)c(OC)c(OC)c2)c2cc(OC)ccc21 [Compound 9l, (E)-Methyl 1-ethyl-5-methoxy-3-(3-oxo-3-(3,4,5-trimethoxyphenyl)prop-1-en-1-yl)-1H-indole-2-carboxylate] | 6800 ± 2600 | 10000 ± 6000 | 93000 ± 1000 | 26000 ± 15000 | 141 to 142 | –
12 | CCOC(=O)c1c(/C=C/C(=O)c2cc(OC)c(OC)c(OC)c2)c2cc(OC)ccc2n1CC [Compound 9m, (E)-Ethyl 1-ethyl-5-methoxy-3-(3-oxo-3-(3,4,5-trimethoxyphenyl)prop-1-en-1-yl)-1H-indole-2-carboxylate] | 24000 ± 2000 | 14000 ± 6000 | 26000 ± 4000 | 19000 ± 10000 | 160 to 161 | –
13 | CCn1c(C(=O)OC)c(/C=C/C(=O)c2cc(OC)c(OC)c(OC)c2)c2ccc(OC)cc21 [Compound 9n, (E)-Methyl 1-ethyl-6-methoxy-3-(3-oxo-3-(3,4,5-trimethoxyphenyl)prop-1-en-1-yl)-1H-indole-2-carboxylate] | 24000 ± 15000 | 19000 ± 9000 | 36000 ± 23000 | 47000 ± 11000 | 157 to 158 | –
14 | COC(=O)c1c(/C=C/C(=O)c2cc(OC)c(OC)c(OC)c2)c2ccccc2n1Cc1ccccc1 [Compound 9o, (E)-Methyl 1-benzyl-3-(3-oxo-3-(3,4,5-trimethoxyphenyl)prop-1-en-1-yl)-1H-indole-2-carboxylate] | 8200 ± 1500 | 11000 ± 6000 | 71000 ± 18000 | 41000 ± 25000 | 166 to 168 | –
15 | CCOC(=O)c1c(/C=C/C(=O)c2cc(OC)c(OC)c(OC)c2)c2ccccc2n1Cc1ccccc1 [Compound 9p, (E)-Ethyl 1-benzyl-3-(3-oxo-3-(3,4,5-trimethoxyphenyl)prop-1-en-1-yl)-1H-indole-2-carboxylate] | 61000 ± 41000 | 9200 ± 4700 | 50000 ± 4000 | 9000 ± 5100 | 128 to 130 | –
16 | COC(=O)c1c(/C=C/C(=O)c2cc(OC)c(OC)c(OC)c2)c2cc(OC)ccc2n1Cc1ccccc1 [Compound 9q, (E)-Methyl 1-benzyl-5-methoxy-3-(3-oxo-3-(3,4,5-trimethoxyphenyl)prop-1-en-1-yl)-1H-indole-2-carboxylate] | 15000 ± 7000 | 18000 ± 10000 | 48000 ± 8000 | 39000 ± 27000 | 170 to 171 | –
17 | COc1ccc2[nH]c(C)c(/C=C/C(=O)c3cc(OC)c(OC)c(OC)c3)c2c1 [compound 3] | – | – | – | – | – | IC50 [7]: > 10 µM
18 | (E)-Methyl 1-benzyl-6-methoxy-3-(3-oxo-3-(3,4,5-trimethoxyphenyl)prop-1-en-1-yl)-1H-indole-2-carboxylate [Compound 9r] | – | – | – | – | – | IC50 ([1]; 72–96 h): 26000 ± 4000 nM; IC50 ([2]; HT29, 72–96 h): 27000 ± 2000 nM; IC50 ([3]; MCF-7, 72–96 h): 28000 ± 3000 nM; IC50 ([4]; HL-60, 72–96 h): 32000 ± 3000 nM
